From US20080200490A1, “Alpha-(Aryl-or Heteroaryl-Methyl)-Beta-Piperidino Propanamide Compounds as Orl-1-Receptor Antagonists” (PFIZER INC., priority 2005, published 2008)
Counter-ions that a name gives are not always drawn.

molecular target: T1, human ORL1 receptor (Homo sapiens, UniProt P41146); experiment: ORL1-Receptor Binding Assay; settings: Ki, [3H]nociceptin, human ORL1 receptor transfected HEK-293 cell membranes
T1 construct: purchased PerkinElmer; host or cells: HEK-293 cells transfected with human ORL1 receptor (membranes)
T1 sequence (P41146 whole entry): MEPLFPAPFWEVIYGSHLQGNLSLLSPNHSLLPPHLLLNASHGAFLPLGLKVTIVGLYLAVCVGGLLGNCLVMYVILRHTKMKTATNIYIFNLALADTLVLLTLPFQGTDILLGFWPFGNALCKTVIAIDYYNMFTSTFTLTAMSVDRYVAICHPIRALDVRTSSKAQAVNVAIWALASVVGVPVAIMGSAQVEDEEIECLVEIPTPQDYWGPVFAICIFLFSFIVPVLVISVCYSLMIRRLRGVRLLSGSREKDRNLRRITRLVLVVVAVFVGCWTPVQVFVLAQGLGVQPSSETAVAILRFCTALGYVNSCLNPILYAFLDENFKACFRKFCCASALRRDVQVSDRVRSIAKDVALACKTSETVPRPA
Experimental: The human ORL1 receptor transfected HEK-293 cell membranes (PerkinElmer) were incubated for 45 min at room temperature with 0.4 nM [^3H]nociceptin, 1.0 mg of wheat germ agglutinin(WGA)-coated SPA beads and various concentrations of test compounds in a final volume of 200 μL of 50 mM HEPES buffer pH 7.4 containing 10 mM MgCl2 and 1 mM EDTA. Non-specific binding (NSB) was determined by the addition of 1 μM unlabeled nociceptin. After the reaction, the assay plate was centrifuged at 1,000 rpm for 1 min and then the radioactivity was measured by WALLAC 1450 MicroBeta Trilux.
The compounds of the examples were tested in the ORL1 Receptor Binding assay.

Row | Compound | Ki [nM]
1 | CN(C)C(=O)C(Cc1cscn1)CN1C2CCC1CC1(C2)OCc2ccccc21 (stereo not drawn) [Example 1, N,N-DIMETHYL-3-(3′H,8H-SPIRO[8-AZABICYCLO[3.2.1]OCTANE-3,1′-[2]BENZOFURAN]-8-YL)-2-(1,3-THIAZOL-4-YLMETHYL)P[…], CITRATE] | 1.8

same assay, conditions: [3H]nociceptin, human ORL1 receptor transfected HEK-293 cell membranes; read-out: Ki

Row | Compound | Ki [nM]
2 | CN(C)C(=O)C(CN1C2CCC1CC1(C2)OCCc2cc(F)ccc21)Cn1cccn1 (stereo not drawn) [Example 11, 3-(6′-FLUORO-3′,4′-DIHYDRO-8H-SPIRO[8-AZABICYCLO[3.2.1]OCTANE-3,1′-ISOCHROMEN]-8-YL)—N,N-DIMETHYL-2-(1H-PYRAZOL-1-YLMETHYL)P[…], CITRATE] | 1.3
3 | CN(C)C(=O)C(CN1C2CCC1CC1(C2)OCCc2cc(F)ccc21)Cn1cccn1 (single isomer, unassigned; (-)) [Example 13, (−)-3-(6′-FLUORO-3′,4′-DIHYDRO-8H-SPIRO[8-AZABICYCLO[3.2.1]OCTANE-3,1′-ISOCHROMEN]-8-YL)-N,N-DIMETHYL-2-(1H-PYRAZOL-1-YLMETHYL)PROPANAMIDE] | 1
4 | CN(C)C(=O)C(CN1C2CCC1CC1(C2)OCCc2ccccc21)Cn1cccn1 (stereo not drawn) [Example 10, 3-(3′,4′-DIHYDRO-8H-SPIRO[8-AZABICYCLO[3.2.1]OCTANE-3,1′-ISOCHROMEN]-8-YL)-N,N-DIMETHYL-2-(1H-PYRAZOL-1-YLMETHYL)P[…], CITRATE] | 7.2
5 | CN(C)C(=O)C(CN1C2CCC1CC1(C2)OCc2ccccc21)Cn1cccn1 (single isomer, unassigned; (+)) [Example 3, (+)-N,N-DIMETHYL-3-(1H-PYRAZOL-1-YL)-2-(3′H,8H-SPIRO[8-AZABICYCLO[3.2.1]OCTANE-3,1′-[2]BENZOFURAN]-8-YLMETHYL)P[…], CITRATE] | 2
6 | CN(C)C(=O)C(Cc1cscn1)CN1C2CCC1CC1(C2)OCc2ccc(F)cc21 (stereo not drawn) [Example 9, 3-(6′-FLUORO-3′H,8H-SPIRO[8-AZABICYCLO[3.2.1]OCTANE-3,1′-[2]BENZOFURAN]-8-YL)-N,N-DIMETHYL-2-(1,3-THIAZOL-4-YLMETHYL) P[…]] | 3.8
7 | CN(C)C(=O)C(CN1C2CCC1CC1(C2)OCc2ccc(F)cc21)Cn1cccn1 (single isomer, unassigned; (-)) [Example 7, (−)-3-(6′-FLUORO-3′H,8H-SPIRO[8-AZABICYCLOr3.2.1]OCTANE-3,1′-[2]BENZOFURAN]-8-YL)-N,N-DIMETHYL-2-(1H-PYRAZOL-1-YLMETHYL)PROPANAMIDE] | 3.6
8 | CN(C)C(=O)C(CN1C2CCC1CC1(C2)OCCc2cc(F)ccc21)Cn1cccn1 (single isomer, unassigned; (+)) [Example 12, (+)-3-(6′-FLUORO-3′,4′-DIHYDRO-8H-SPIRO[8-AZABICYCLO[3.2.1]OCTANE-3,1′-ISOCHROMEN]-8-YL)-N,N-DIMETHYL-2-(1H-PYRAZOL-1-YLMETHYL)P[…], CITRATE] | 140
9 | CN(C)C(=O)C(CN1C2CCC1CC1(C2)OCc2ccc(F)cc21)Cn1cccn1 (single isomer, unassigned) [Example 8, 3-(6′-FLUORO-3′H,8H-SPIRO[8-AZABICYCLO[3.2.1]OCTANE-3,1′-[2]BENZOFURAN]-8-YL)-N,N-DIMETHYL-2-(1H-PYRAZOL-1-YLMETHYL)P[…], CITRATE] | 2.6
10 | CN(C)C(=O)C(CN1C2CCC1CC1(C2)OCc2ccc(F)cc21)Cn1cccn1 (stereo not drawn) [Example 5, 3-(6′-FLUORO-3′H,8H-SPIRO[8-AZABICYCLO[3.2.1]OCTANE-3,1′-[2]BENZOFURAN]-8-YL)-N,N-DIMETHYL-2-(1H-PYRAZOL-1-YLMETHYL)P[…], CITRATE] | 3.6
11 | CN(C)C(=O)C(CN1C2CCC1CC1(C2)OCc2ccccc21)Cn1cccn1 (stereo not drawn) [Example 2, N,N-DIMETHYL-3-(1H-PYRAZOL-1-YL)-2-(3′H,8H-SPIRO[8-AZABICYCLO[3.2.1]OCTANE-3,1′-[2]BENZOFURAN]-8-YLMETHYL)P[…], CITRATE] | 2.4

molecular target: T2, HERG (Homo sapiens, UniProt Q12809); experiment: not given; assay type: binding; settings: not given
T2 construct: expressed in transfected cells; host or cells: HEK-293
T2 sequence (Q12809 whole entry): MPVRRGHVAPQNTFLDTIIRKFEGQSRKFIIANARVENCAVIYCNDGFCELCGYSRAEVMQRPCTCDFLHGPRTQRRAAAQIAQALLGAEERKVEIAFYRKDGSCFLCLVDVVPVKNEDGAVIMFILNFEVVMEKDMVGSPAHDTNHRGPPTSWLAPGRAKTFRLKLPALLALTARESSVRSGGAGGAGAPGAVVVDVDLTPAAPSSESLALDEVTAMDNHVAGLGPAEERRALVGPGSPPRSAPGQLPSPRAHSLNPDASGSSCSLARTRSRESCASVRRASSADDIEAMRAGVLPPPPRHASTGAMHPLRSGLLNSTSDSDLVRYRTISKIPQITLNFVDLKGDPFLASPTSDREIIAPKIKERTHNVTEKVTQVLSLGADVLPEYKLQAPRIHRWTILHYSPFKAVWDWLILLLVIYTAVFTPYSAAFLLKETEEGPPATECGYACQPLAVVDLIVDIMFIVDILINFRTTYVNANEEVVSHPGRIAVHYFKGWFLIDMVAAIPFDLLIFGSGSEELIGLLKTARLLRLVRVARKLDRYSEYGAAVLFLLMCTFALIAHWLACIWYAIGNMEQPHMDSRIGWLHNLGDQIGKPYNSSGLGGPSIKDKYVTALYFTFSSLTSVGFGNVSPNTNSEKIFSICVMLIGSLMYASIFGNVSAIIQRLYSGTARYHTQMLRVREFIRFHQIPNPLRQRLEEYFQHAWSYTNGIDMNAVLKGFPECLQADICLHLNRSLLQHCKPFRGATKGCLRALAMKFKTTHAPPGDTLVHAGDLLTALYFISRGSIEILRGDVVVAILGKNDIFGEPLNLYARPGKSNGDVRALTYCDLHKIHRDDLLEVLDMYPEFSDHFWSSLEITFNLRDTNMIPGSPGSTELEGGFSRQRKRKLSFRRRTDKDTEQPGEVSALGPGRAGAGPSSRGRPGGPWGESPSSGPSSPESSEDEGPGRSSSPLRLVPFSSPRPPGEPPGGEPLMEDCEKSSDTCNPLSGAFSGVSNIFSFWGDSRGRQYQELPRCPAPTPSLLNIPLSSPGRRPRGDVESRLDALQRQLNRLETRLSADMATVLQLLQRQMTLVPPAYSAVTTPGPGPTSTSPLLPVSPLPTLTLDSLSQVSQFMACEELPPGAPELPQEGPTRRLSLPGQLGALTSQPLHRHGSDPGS
Experimental: Cell paste of HEK-293 cells expressing the HERG product was suspended in 10-fold volume of 50 mM Tris buffer adjusted at pH 7.5 at 25° C. with 2 M HCl containing 1 mM MgCl2, 10 mM KCl. The cells were homogenized using a Polytron homogenizer (at the maximum power for 20 seconds) and centrifuged at 48,000 g for 20 minutes at 4° C. The pellet was resuspended, homogenized and centrifuged once more in the same manner. The resultant supernatant was discarded and the final pellet was resuspended (10-fold volume of 50 mM Tris buffer) and homogenized at the maximum power for 20 seconds. The membrane homogenate was aliquoted and stored at −80° C. until use. An aliquot was used for protein concentration determination using a Protein Assay Rapid Kit and ARVO SX plate reader (Wallac). […] Saturation was determined by incubating 20 μl of [^3H]-dofetilide and 160 μl of membrane homogenates (20-30 μg protein per well) for 60 min at room temperature in the absence or presence of 10 μM dofetilide at final concentrations (20 μl) for total or nonspecific binding, respectively. […] Receptor-bound radioactivity was quantified by liquid scintillation counting using Packard LS counter.
For the competition assay, compounds were diluted in 96 well polypropylene plates as 4-point dilutions in semi-log format. […] Receptor-bound radioactivity was quantified by counting Wallac MicroBeta plate counter. […]

Row | Compound | activity in the dofetilide binding assay
12 | CN1C(=O)C(CN2CCC3(CCc4ccccc43)CC2)Cc2ccccc21 (stereo not drawn) [Compound (I)] | potent activity
